22 compounds from patent US20020128231A1 (priority 2000, published 2002) can be followed below.

Series [1] relates to MDR1-expressing NIH 3T3 cells. In words: Cytotoxicity (MTT) assay: modulation of drug cytotoxicity in multidrug resistant cells. As to conditions: compound 5 μM; 50 nM doxorubicin; 72 hours; MTT.
Description: Cytotoxicity assays were performed with many of the compounds of Formula I to verify their usefulness as inhibitors of P-gp.
Parental NIH3T3 Swiss mouse embryo cell line was obtained from American Type Culture Collection and was grown in Dulbecco's Modified Eagles Medium supplemented with 4.5 g/L glucose, 10% fetal bovine serum, 2 mM L-glutamine, and 0.01 mg/ml gentamicin. […] All cells were maintained in a humidified atmosphere with 5% CO2 at 37° C.
Parental and MDR1-expressing NIH 3T3 cells were plated at a density of 2.5-3.0×10^3 cells/well in 96-well microtiter plates and were exposed to 50 nM of doxoriubicin, 7.5 nM vinblastine, 75 nM colchicine or 300 nM paclitaxel for 72 hours. Cell viability was determined with the colorimetric MTT (3-(4,5-dimethylthiazol-2-yl)-2,5-diphenyl tetrazolium) assay as previously described (Mosmann T., J. Immunol. Methods, 65: 55-63 (1983); Hansen M. B. et al., J. Immunol. Methods, 119: 203-210 (1989)) and the absorbance was measured at 570 nm.
For another series, the target named is P-glycoprotein (Homo sapiens, UniProt P08183). In words: Rhodamine 123 transport assay across HCT-8 cell monolayers. The settings on record: for inhibition at 10 μM: human, HCT-8 cell monolayers in Transwell dishes, probe Rhodamine 123 (15 μM).
Sequence of P-glycoprotein (P08183 whole entry): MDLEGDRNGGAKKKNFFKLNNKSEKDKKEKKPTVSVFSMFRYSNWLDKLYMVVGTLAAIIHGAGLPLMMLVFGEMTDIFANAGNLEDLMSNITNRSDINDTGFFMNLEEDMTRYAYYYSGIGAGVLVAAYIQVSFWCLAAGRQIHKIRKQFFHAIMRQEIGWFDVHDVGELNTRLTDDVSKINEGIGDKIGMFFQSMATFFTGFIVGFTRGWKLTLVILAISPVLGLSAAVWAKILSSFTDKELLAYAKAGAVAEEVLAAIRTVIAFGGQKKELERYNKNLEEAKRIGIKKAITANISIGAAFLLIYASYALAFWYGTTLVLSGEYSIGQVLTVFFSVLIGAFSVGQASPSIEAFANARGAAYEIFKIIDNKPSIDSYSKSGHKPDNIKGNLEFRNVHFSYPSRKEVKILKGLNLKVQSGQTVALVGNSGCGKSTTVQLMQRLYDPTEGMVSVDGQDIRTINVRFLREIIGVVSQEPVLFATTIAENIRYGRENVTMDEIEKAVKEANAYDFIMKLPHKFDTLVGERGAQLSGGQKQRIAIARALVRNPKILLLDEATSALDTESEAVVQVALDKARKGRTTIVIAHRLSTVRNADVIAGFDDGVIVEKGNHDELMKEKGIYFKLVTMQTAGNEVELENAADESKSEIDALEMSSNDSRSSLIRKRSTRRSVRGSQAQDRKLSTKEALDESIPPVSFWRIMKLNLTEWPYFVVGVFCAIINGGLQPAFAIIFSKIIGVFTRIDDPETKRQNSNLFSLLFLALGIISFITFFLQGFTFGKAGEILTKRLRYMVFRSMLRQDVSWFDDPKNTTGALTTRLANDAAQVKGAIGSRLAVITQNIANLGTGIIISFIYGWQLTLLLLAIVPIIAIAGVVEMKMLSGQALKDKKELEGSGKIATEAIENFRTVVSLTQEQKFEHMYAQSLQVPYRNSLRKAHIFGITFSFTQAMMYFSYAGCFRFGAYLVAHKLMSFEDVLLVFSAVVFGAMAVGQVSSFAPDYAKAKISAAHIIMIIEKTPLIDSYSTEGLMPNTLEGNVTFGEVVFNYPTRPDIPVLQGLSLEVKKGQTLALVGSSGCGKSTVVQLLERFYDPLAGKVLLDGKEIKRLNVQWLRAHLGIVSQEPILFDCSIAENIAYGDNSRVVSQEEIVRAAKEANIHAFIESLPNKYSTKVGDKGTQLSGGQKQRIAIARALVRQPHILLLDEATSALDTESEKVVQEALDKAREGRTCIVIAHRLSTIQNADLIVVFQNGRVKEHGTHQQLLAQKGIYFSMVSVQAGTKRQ
Setting [2] is: compound 10 μM, Rh123 15 μM, HCT-8 cells.
The mark [3] stands for this setting: % Inhibition of R123 Transport, compound 10 μM, Rh123 15 μM, HCT-8 cells.

Description for P-glycoprotein: The human ileocecal adenocarcinoma cell line HCT-8 was grown in RPMI-1640 medium supplemented with 10% horse serum, 1 mM sodium pyruvate and 0.01 mg/ml gentamicin. All cells were maintained in a humidified atmosphere with 5% CO2 at 37° C.
Rhodamine 123 transport was examined as previously described (Hunter J. et al., Simmons, Br. J. Cancer, 64: 437444 (1991); Kim A. E. et al., J. Pharm. Exp. Ther., 286: 1439-1445 (1998)) using HCT-8 cells. Particularly, cells were grown in 6 well Corning Transwell dishes until a tight monolayer was formed. Rh123 was added at a final concentration of 15 μM to the basal or apical compartments and 200 μl samples were taken at the indicated times from the opposite chamber. Fluorescence of Rh123 in the media samples was measured using a fluorescence plate reader with an excitation wavelength of 485 nm and an emission wavelength of 530 nm.

`COCC1C(CCN2CCC(Cc3ccccc3)CC2)c2cc(OC)c(OC)cc2C1c1ccc(OC)c(OC)c1` (stereo not shown): the “Modulation of Drug Resistance (percentage increase in doxorubicin cytotoxicity in the presence of the compounds versus in their absence)” value in series [1] was 73.65%. Moreover, the inhibition (as a rule, the change of the read-out against control, counted positive when it falls) at 10 μM on P-glycoprotein was found to be 88.9%.

As to “2-{3-(3,4-dimethoxyphenyl)-5,6-dimethoxy-2-[4-(4-nitrophenyl)-piperazin-1-carbonyl]-indan-1-yl}-1-[4-(4-nitrophenyl)-1-yl]-ethanone [AV-196]”, the “Modulation of Drug Resistance (percentage increase in doxorubicin cytotoxicity in the presence of the compounds versus in their absence)” value in series [1] was 41.47%. Further, the “% Inhibition of R123 Transport” value on P-glycoprotein (setting [2]) was 64.4%.

For the compound `CCCOc1ccc(C2c3cc(OCCC)c(OC)cc3C(CC(=O)N3CCN(c4ccccc4OCC)CC3)C2C(=O)N2CCN(c3ccccc3OCC)CC2)cc1OC` (single isomer, unassigned) [AV-239-1], the “Modulation of Drug Resistance (percentage increase in doxorubicin cytotoxicity in the presence of the compounds versus in their absence)” value in series [1] is on record as 55.3%. In addition, the “% Inhibition of R123 Transport” value on P-glycoprotein (setting [2]) amounted to 90.10%.

With `CCCOc1ccc(C2c3cc(OCCC)c(OC)cc3C(CC(=O)N3CCN(c4ccccc4OCC)CC3)C2C(=O)N2CCN(c3ccccc3OCC)CC2)cc1OC` (single isomer, unassigned) [AV-239-2], in series [1], the “Modulation of Drug Resistance (percentage increase in doxorubicin cytotoxicity in the presence of the compounds versus in their absence)” value came to 60%. For the same compound, the “% Inhibition of R123 Transport” value at P-glycoprotein (setting [2]) came out at 91.38%.

As to `COc1cc(C2c3cc(O)c(OC)cc3C(CC(=O)N3CCC(Cc4ccccc4)CC3)C2C(=O)N2CCC(Cc3ccccc3)CC2)ccc1O` (single isomer, unassigned) [AV-251-1], the “Modulation of Drug Resistance (percentage increase in doxorubicin cytotoxicity in the presence of the compounds versus in their absence)” value in series [1] is recorded as −6.9%. The “% Inhibition of R123 Transport” value on P-glycoprotein (setting [2]) came to 79.26%.

As to `COc1cc(C2c3cc(O)c(OC)cc3C(CC(=O)N3CCC(Cc4ccccc4)CC3)C2C(=O)N2CCC(Cc3ccccc3)CC2)ccc1O` (single isomer, unassigned) [AV-251-2], the “Modulation of Drug Resistance (percentage increase in doxorubicin cytotoxicity in the presence of the compounds versus in their absence)” value in series [1] worked out at 2.4%. The “% Inhibition of R123 Transport” value on P-glycoprotein (setting [2]) was 75.44%.

Regarding `CCOc1ccccc1N1CCN(C(=O)CC2c3cc4c(cc3C(c3ccc5c(c3)OCO5)C2C(=O)N2CCN(c3ccccc3OCC)CC2)OCO4)CC1` (single isomer, unassigned) [AV-258-1, 2-{7-benzo[1,3]dioxol-5-yl-6-[4-(2-ethoxy-phenyl)-piperazin-1-carbonyl]-6,7-dihydro-5H-indeno[5,6-d][1,3]dioxol-5-yl}-1-[4-(2-ethoxy-phenyl)-piperazin-1-yl]-ethanone], the “Modulation of Drug Resistance (percentage increase in doxorubicin cytotoxicity in the presence of the compounds versus in their absence)” value in series [1] is listed as 7.9%. In addition, the inhibition at 10 μM on P-glycoprotein (setting [3]) turned out to be 69.9%.

As for `CCOc1ccccc1N1CCN(C(=O)CC2c3cc4c(cc3C(c3ccc5c(c3)OCO5)C2C(=O)N2CCN(c3ccccc3OCC)CC2)OCO4)CC1` (single isomer, unassigned) [AV-258-2, 2-{7-benzo[1,3]dioxol-5-yl-6-[4-(2-ethoxy-phenyl)-piperazin-1-carbonyl]-6,7-dihydro-5H-indeno[5,6-d][1,3]dioxol-5-yl}-1-[4-(2-ethoxy-phenyl)-piperazin-1-yl]-ethanone], the “Modulation of Drug Resistance (percentage increase in doxorubicin cytotoxicity in the presence of the compounds versus in their absence)” value in series [1] stood at 19.2%. Further, the “% Inhibition of R123 Transport” value on P-glycoprotein (setting [2]) amounted to 67.09%.

In the case of `COc1ccc(C2c3cc(OC)c(OC)cc3C(CC(=O)N3CCC(Cc4ccccc4)CC3)C2C(=O)N2CCC(Cc3ccccc3)CC2)cc1OC` (stereo not shown) [AV-159, 2-[2-(4-benzylpiperidine-1-carbonyl)-3-(3,4-dimethoxyphenyl)-5,6-dimethoxy-indan-1-yl]-1-(4-benzylpiperidin-1-yl)-ethanone], the “Modulation of Drug Resistance (percentage increase in doxorubicin cytotoxicity in the presence of the compounds versus in their absence)” value in series [1] worked out at 56.06%. At P-glycoprotein (setting [3]), this compound came in with an inhibition at 10 μM of 81.4%.

As to `COc1ccc(C2c3cc(OC)c(OC)cc3C(CC(=O)N3CCN(c4ccccc4)CC3)C2C(=O)N2CCN(c3ccccc3)CC2)cc1OC` (stereo not shown) [AV-161, 2-[3-(3,4-dimethoxyphenyl)-5,6-dimethoxy-2-(4-phenylpiperazin-1-carbonyl)-indan-1-yl]-1-(4-phenylpiperazin-1-yl)-ethanone], the “Modulation of Drug Resistance (percentage increase in doxorubicin cytotoxicity in the presence of the compounds versus in their absence)” value in series [1] is reported as 75.91%. Besides, on P-glycoprotein (setting [3]), the inhibition at 10 μM amounted to 64.1%.

Turning to `COc1ccc(C2c3cc(OC)c(OC)cc3C(CCN3CCN(c4ccccc4)CC3)C2CN2CCN(c3ccccc3)CC2)cc1OC` (stereo not shown) [AV-162, 2-[3-(3,4-dimethoxyphenyl)-5,6-dimethoxy-2-(4-phenylpiperazin-1-yl)methyl-indan-1-yl]-1-(4-phenylpiperazin-1-yl)-ethane], the “Modulation of Drug Resistance (percentage increase in doxorubicin cytotoxicity in the presence of the compounds versus in their absence)” value in series [1] turned out to be 65.83%. The inhibition at 10 μM on P-glycoprotein (setting [3]) was determined as 83.1%.

On to `COc1ccc(C2c3cc(OC)c(OC)cc3C(CC(=O)N3CCN(c4ccc(C(C)=O)cc4)CC3)C2C(=O)N2CCN(c3ccc(C(C)=O)cc3)CC2)cc1OC` (stereo not shown) [AV-163, 2-[2-[4-(4-acetylphenyl)-piperazin-1-carbonyl]-3-(3,4-dimethoxyphenyl)-5,6-dimethoxy-indan-1-yl]-1[4-(4-acetylphenyl)piperazine-1-yl]-ethanone], for which, in series [1], the “Modulation of Drug Resistance (percentage increase in doxorubicin cytotoxicity in the presence of the compounds versus in their absence)” value came out at 72.55%. The compound further gave an inhibition at 10 μM on P-glycoprotein (setting [3]) of 89.7%.

`COc1ccc(C2c3cc(OC)c(OC)cc3C(CC(=O)N3CCN(Cc4ccccc4)CC3)C2C(=O)N2CCN(Cc3ccccc3)CC2)cc1OC` (stereo not shown) [AV-164, 2-[2-(4-benzylpiperazine-1-carbonyl)-3-(3,4-dimethoxyphenyl)-5,6-dimethoxy-indan-1-yl]-1-(4-benzylpiperazine-1-yl)-ethanone]: the “Modulation of Drug Resistance (percentage increase in doxorubicin cytotoxicity in the presence of the compounds versus in their absence)” value in series [1] amounted to 70.03%. This compound displayed an inhibition at 10 μM against P-glycoprotein (setting [3]) of 85.1%.

On to `COc1ccc(C2c3cc(OC)c(OC)cc3C(CC(=O)N3CCN(c4ccc(Cl)cc4)CC3)C2C(=O)N2CCN(c3ccc(Cl)cc3)CC2)cc1OC` (stereo not shown) [AV-167, 2-[2-[4-(4-chlorophenyl)-piperazin-1 carbonyl]-3-(3,4-dimethoxyphenyl)-5,6-dimethoxy-indan-1-yl]-1-[4-(4-chlorophenyl)piperazine-1-yl]-ethanone], for which the “Modulation of Drug Resistance (percentage increase in doxorubicin cytotoxicity in the presence of the compounds versus in their absence)” value in series [1] was 68.21%. The compound further came in with an inhibition at 10 μM against P-glycoprotein (setting [3]) of 66.3%.

As to `COc1ccc(N2CCN(C(=O)CC3c4cc(OC)c(OC)cc4C(c4ccc(OC)c(OC)c4)C3C(=O)N3CCN(c4ccc(OC)cc4)CC3)CC2)cc1` (stereo not shown) [AV-168, 2-{3-(3,4-dimethoxyphenyl)-5,6-dimethoxy-2-[4-(4-methoxyphenyl)-piperazin-1-carbonyl]-indan-1-yl}-1-[4-(4-methoxyphenyl)-1-yl]-ethanone], the “Modulation of Drug Resistance (percentage increase in doxorubicin cytotoxicity in the presence of the compounds versus in their absence)” value in series [1] is given as 73.81%. For the same compound, the “% Inhibition of R123 Transport” value on P-glycoprotein (setting [2]) came out at 81.5%.

In the case of `COc1ccc(C2c3cc(OC)c(OC)cc3C(CC(=O)N3CCN(c4ccc(F)cc4)CC3)C2C(=O)N2CCN(c3ccc(F)cc3)CC2)cc1OC` (stereo not shown) [AV-169, 2-{2-[4-(4-fluorophenyl)-piperazin-1-carbonyl]-3-(3,4-dimethoxyphenyl)-5,6-dimethoxy-indan-1-yl}-1-[4-(4-fluorophenyl)piperazine-1-yl]-ethanone], the “Modulation of Drug Resistance (percentage increase in doxorubicin cytotoxicity in the presence of the compounds versus in their absence)” value in series [1] is 71.29%. In addition, the inhibition at 10 μM against P-glycoprotein (setting [3]) came to 77.1%.

In the case of `CCOc1ccccc1N1CCN(C(=O)CC2c3cc(OC)c(OC)cc3C(c3ccc(OC)c(OC)c3)C2C(=O)N2CCN(c3ccccc3OCC)CC2)CC1` (stereo not shown) [AV-171, 2-{3-(3,4-dimethoxyphenyl)-5,6-dimethoxy-2-[4-(2-ethoxyphenyl)-piperazin-1-carbonyl]-indan-1-yl}-1-[4-(2-ethoxyphenyl)-1-yl]-ethanone], in series [1], the “Modulation of Drug Resistance (percentage increase in doxorubicin cytotoxicity in the presence of the compounds versus in their absence)” value worked out at 66.11%. At P-glycoprotein (setting [2]), the “% Inhibition of R123 Transport” value was determined as 92.9%.

Take `COc1ccc(C2c3cc(OC)c(OC)cc3C(CC(=O)N3CCN(CC=Cc4ccccc4)CC3)C2C(=O)N2CCN(CC=Cc3ccccc3)CC2)cc1OC` (stereo not shown) [AV-172, 2-{3-(3,4-dimethoxyphenyl)-5,6-dimethoxy-2-[4-(3-phenylallyl)-piperazine-1-carbonyl]-indan-1-yl}-1-[4-(3-phenylallyl)piperazine-1-yl]-ethanone]: the “Modulation of Drug Resistance (percentage increase in doxorubicin cytotoxicity in the presence of the compounds versus in their absence)” value in series [1] stood at 68.57%. On P-glycoprotein (setting [3]), the inhibition at 10 μM came out at 86.7%.

As for `CCOC(=O)N1CCN(C(=O)CC2c3cc(OC)c(OC)cc3C(c3ccc(OC)c(OC)c3)C2C(=O)N2CCN(C(=O)OCC)CC2)CC1` (stereo not shown) [AV-174, 4-{2-[3-(3,4-dimethoxyphenyl)-5,6-dimethoxy-2-(piperazine-1-carboxylic acid ethyl ester)-indan-1-yl]-acetyl}-piperazine-1-carboxylic acid ethyl ester], the “Modulation of Drug Resistance (percentage increase in doxorubicin cytotoxicity in the presence of the compounds versus in their absence)” value in series [1] was determined as 18.50%. Besides, the “% Inhibition of R123 Transport” value at P-glycoprotein (setting [2]) is 23.1%.

Regarding `COc1ccc(C2c3cc(OC)c(OC)cc3C(CCO[Si](c3ccccc3)(c3ccccc3)C(C)(C)C)C2CO)cc1OC` (stereo not shown) [AV-175, [1-[2-t-butyldiphenyl-silanoxy)-ethyl-3-(3,4-dimethoxyphenyl)-5,6-dimethoxy-indan-2-yl]-methanol], the “Modulation of Drug Resistance (percentage increase in doxorubicin cytotoxicity in the presence of the compounds versus in their absence)” value in series [1] is reported as 52.50%. Moreover, the “% Inhibition of R123 Transport” value at P-glycoprotein (setting [2]) came out at 71.3%.

As to `COCC1C(CCO)c2cc(OC)c(OC)cc2C1c1ccc(OC)c(OC)c1` (stereo not shown) [AV-176, 2-[3-[3,4-dimethoxyphenyl)-5,6-dimethoxy-2-methoxymethyl-indan-1-yl]-ethanol], the “Modulation of Drug Resistance (percentage increase in doxorubicin cytotoxicity in the presence of the compounds versus in their absence)” value in series [1] came out at 8.65%. The inhibition at 10 μM at P-glycoprotein (setting [3]) stood at 11.5%.

For `COCC1C(CCN2CCN(CC=Cc3ccccc3)CC2)c2cc(OC)c(OC)cc2C1c1ccc(OC)c(OC)c1` (stereo not shown) [AV-204, 1-{2-[3-(3,4-dimethoxyphenyl)-5,6-dimethoxy-2-methoxymethyl-indan-1-yl]-ethyl}-4-(3-phenylallyl)-piperazine], the “Modulation of Drug Resistance (percentage increase in doxorubicin cytotoxicity in the presence of the compounds versus in their absence)” value in series [1] amounted to 64.60%.
